Test results reported in US8350028B2, “2-aminoquinolines” (Hofmann-La Roche Inc., priority 2008, dated 2013).

target: T1, recombinant human 5-HT5A receptor (Homo sapiens, UniProt P47898); assay: [3H]LSD radioligand binding assay; details: [3H]LSD (approximately 1 nM); membranes from HEK-EBNA cells transiently expressing 5-HT5A receptors; Ki calculated from IC50 using the Cheng-Prussoff equation
T1 construct: expressed in transfected cells; host or cells: HEK-EBNA (Human Embryonic Kidney-EBNA) cells, transient cDNA expression; membranes
T1 sequence (P47898 whole entry): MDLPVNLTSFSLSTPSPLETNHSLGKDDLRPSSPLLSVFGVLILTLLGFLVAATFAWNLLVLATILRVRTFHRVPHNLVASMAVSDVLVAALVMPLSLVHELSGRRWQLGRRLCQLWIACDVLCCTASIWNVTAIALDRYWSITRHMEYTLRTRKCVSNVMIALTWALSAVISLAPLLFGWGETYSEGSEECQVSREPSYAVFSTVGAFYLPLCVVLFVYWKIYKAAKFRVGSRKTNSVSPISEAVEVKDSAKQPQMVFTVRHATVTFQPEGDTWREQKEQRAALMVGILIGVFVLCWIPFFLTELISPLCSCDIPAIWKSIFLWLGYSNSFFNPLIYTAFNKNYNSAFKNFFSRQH
Description: A [^3H]LSD radioligand binding assay was used to determine the affinity of the compounds for the recombinant human 5-HT5A receptor, in membranes from transiently (cDNA) expressed 5-HT5A receptors in Human Embryonic Kidney-EBNA (HEK-EBNA) cells. Assay buffer consisted of Tris (50 mM) buffer containing 1 mM EGTA, 10 mM MgCl2 (pH 7.4) and 10 μM pargyline. The binding assay was carried out in 96-well-plates in the presence of [^3H]LSD (approximately 1 nM), approximately 2 μg/well of membrane protein, and 0.5 mg of Ysi-poly-1-lysine SPA beads in a final volume of 200 μl of buffer. Non-specific binding was defined using methiothepin 2 μM. Compounds were tested at 10 concentrations. All assays were conducted in duplicate and repeated at least two times. Assay plates were incubated for 120 min at room temperature before centrifugation. Bound ligand was determined using a Packard Topcount scintillation counter. IC50 values were calculated using a non-linear curve fitting program and Ki values calculated using the Cheng-Prussoff equation.

| Ki [nM] | SMILES |
| --- | --- |
| 17.1 | COc1ccccc1CNc1ccc2cc(NS(=O)(=O)N(C)C)ccc2n1 [Example 10, N′-{2-[(2-methoxybenzyl)amino]quinolin-6-yl}-N,N-dimethylsulfamide] |
| 3.3 | COc1ccccc1CNc1ccc2cc(NC(=O)NC(C)C)ccc2n1 [Example 14, 1-Isopropyl-3-[2-(2-methoxy-benzylamino)-quinolin-6-yl]-urea] |
| 2.7 | COc1ccccc1CNc1ccc2cc(NC(=O)NC3CCN(C)CC3)ccc2n1 [Example 17, 1-[2-(2-Methoxy-benzylamino)-quinolin-6-yl]-3-(1-methyl-piperidin-4-yl)-urea] |
| 8 | COc1ccccc1CNc1ccc2cc(NS(=O)(=O)N3C[C@@H]4C[C@H]3CO4)ccc2n1 [Example 19, (1S,4S)-2-Oxa-5-aza-bicyclo[2.2.1]heptane-5-sulfonic acid [2-(2-methoxy-benzylamino)-quinolin-6-yl]-amide] |
| 26.8 | COc1ccccc1CNc1ccc2cc(NS(=O)(=O)NC3CC3)ccc2n1 [Example 20, N-cyclopropyl-N′-{2-[(2-methoxybenzyl)amino]quinolin-6-yl}sulfamide] |
| 8.4 | COc1ccccc1CNc1ccc2cc(NC(=O)NC3CCN(CCF)CC3)ccc2n1 [Example 24, 1-[1-(2-Fluoro-ethyl)-piperidin-4-yl]-3-[2-(2-methoxy-benzylamino)-quinolin-6-yl]-urea] |
| 6.7 | COc1ccccc1CNc1ccc2cc(NC(=O)NC3CCN(C(C)C)CC3)ccc2n1 [Example 25, 1-(1-Isopropyl-piperidin-4-yl)-3-[2-(2-methoxy-benzylamino)-quinolin-6-yl]-urea] |
| 6.8 | COc1ccccc1CNc1ccc2cc(NC(=O)NC3CCN(C4CC4)CC3)ccc2n1 [Example 28, 1-(1-Cyclopropyl-piperidin-4-yl)-3-[2-(2-methoxy-benzylamino)-quinolin-6-yl]-urea] |
| 5.9 | COc1ccccc1CNc1ccc2cc(NC(=O)NC3CCN(CCSC)CC3)ccc2n1 [Example 30, 1-[2-(2-Methoxy-benzylamino)-quinolin-6-yl]-3-[1-(2-methylsulfanyl-ethyl)-piperidin-4-yl]-urea] |
| 6.5 | COc1ccccc1CNc1ccc2cc(NC(=O)C3CC3)ccc2n1 [Example 32, Cyclopropanecarboxylic acid [2-(2-methoxy-benzylamino)-quinolin-6-yl]-amide] |

More lines, now with the values behind:

| SMILES | Ki [nM] |
| --- | --- |
| COc1ccc(CNc2ccc3cc(NC(=O)NC(C)C)ccc3n2)cc1 [Example 18, 1-Isopropyl-3-[2-(4-methoxy-benzylamino)-quinolin-6-yl]-urea] | 49.5 |
| Cc1ccc(CNc2ccc3cc(NC(=O)NC(C)C)ccc3n2)o1 [Example 21, 1-Isopropyl-3-{2-[(5-methyl-furan-2-ylmethyl)-amino]-quinolin-6-yl}-urea] | 27.4 |
| COCCN1CCC(NC(=O)Nc2ccc3nc(NCc4ccccc4OC)ccc3c2)CC1 [Example 23, 1-[2-(2-Methoxy-benzylamino)-quinolin-6-yl]-3-[1-(2-methoxy-ethyl)-piperidin-4-yl]-urea] | 6.4 |
| COc1ccccc1CNc1ccc2cc(NC(=O)NC3CCN(C(=O)CC(F)(F)F)CC3)ccc2n1 [Example 26] | 36.2 |
| COc1ccccc1CNc1ccc2cc(NC(=O)NC3CCN(C(=O)CF)CC3)ccc2n1 [Example 27, 1-[1-(2-Fluoro-acetyl)-piperidin-4-yl]-3-[2-(2-methoxy-benzylamino)-quinolin-6-yl]-urea] | 15.7 |
| Cc1ccc(CNc2ccc3cc(NC(=O)NC4CCN(C)CC4)ccc3n2)o1 [Example 29, 1-{2-[(5-Methyl-furan-2-ylmethyl)-amino]-quinolin-6-yl}-3-(1-methyl-piperidin-4-yl)-urea] | 12.5 |
| COCC(=O)N1CCC(NC(=O)Nc2ccc3nc(NCc4ccccc4OC)ccc3c2)CC1 [Example 31, 1-[1-(2-Methoxy-acetyl)-piperidin-4-yl]-3-[2-(2-methoxy-benzylamino)-quinolin-6-yl]-urea] | 20.4 |
| COc1ccccc1CNc1ccc2cc(NC(=O)CN3CCN(C)CC3)ccc2n1 [Example 33, N-[2-(2-Methoxy-benzylamino)-quinolin-6-yl]-2-(4-methyl-piperazin-1-yl)-acetamide] | 33 |
